Earlier results on 2 compounds are cited in patent US10300065B2, “Method of treating or prevention of atherothrombotic events in patients with history of myocardial infarction” (ASTRAZENECA AB, priority 2015, dated 2019).

Structures are written as SMILES.

The conditions of data set [1]: human, in vivo, po; cited from earlier work.
Data set [2] has as its system patients with acute coronary syndrome. The following applies: PLATO, cited from earlier work.

With `CCCSc1nc(N[C@@H]2C[C@H]2c2ccc(F)c(F)c2)c2nnn([C@@H]3C[C@H](O)[C@@H](O)[C@H]3O)c2n1` [AR-C124910XX], the “AUC and cmax of crushed tablets relative to whole tablets (bioequivalence)” value in data set [1] is reported as 80-125%. For `COC(=O)[C@H](c1ccccc1Cl)N1CCc2sccc2C1` [clopidogrel], in data set [2] (clopidogrel), the “serum uric acid level increase from baseline” value was “approximately 0.2 mg/dL”. Also, in data set [2] (each treatment group), the reports of gout is recorded as 0.6%.
